Measurements published in US20070225242A1, “Method and composition for treating and preventing tumor metastasis in vivo” (The Board of Trustees of the Leland Stanford Junior …, priority 2005, published 2007).

What was measured:
[1] = tested on: A549 Non-Small Cell Lung Cancer Cells; experiment: A549 cells injected into the tail vein of mice; format: in vivo; conditions: sacrificed at Day 22; BAPN 100 mg/kg daily
Experimental: Human lung cancer A549 cells (ATCC CCL 185), known to be highly metastatic, were generated to stably express shRNA targeting LOX, as described in Methods. […] 1×10^6 cells were injected into the tail vein of mice (all cells go to the lung).
Lungs from the dead mice bearing control tumors were formalin fixed, paraffin embedded and H&E stained to quantify lung tumors. Most lungs contained no tumors but all mice had numerous lymph node metastases and one had liver metastases. N=5 mice bearing lung tumors expressing LOX shRNA were sacrificed at Day 22. […] In addition, n=5 mice bearing control tumors treated daily with BAPN (100 mg/kg) were sacrificed at Day 22. […] The number of lung tumors for the A549 control animals is low because it is believed that the tumors metastasized out of the lung.
Wild-type or LOX shRNA A549 Non-Small Cell Lung Cancer Cells were injected into the tail vein of immune deficient mice and analyzed for survival differences for a period of 181 days. 100% of animals with wild-type tumors died within 35 days compared with only 40% of animals stably transfected with a shRNA to LOX. Some animals were allowed two weeks to develop metastases, and then were left untreated or treated twice weekly with 2 mg/kg of the LOX antibody in Example 7. FIG. 12 is a Kaplan-Meyer plot showing survival of the animals.

MDA-MB 231 cells = MDA-MB 231 cells grown as orthotopic tumors in nude mice; lung and liver metastases
Experimental: In addition, MDA231 cells were grown as orthotopic tumors in nude mice. […] In FIGS. 5 A and B, data were obtained by microscopic quantification of metastases in lungs and livers stained with hematoxylin and eosin. […] 4 wk BAPN represents treatment started at week 4, etc.
To evaluate the therapeutic usefulness of inhibiting LOX, mice with control MDA231 tumors were treated with β-aminoproprionitrile (BAPN), a specific and irreversible inhibitor of LOX enzymatic activity. […] In FIG. 5C, metastases were counted weekly over six weeks for ten sections (n=5 mice). Solid line, with circles control lung; dashed line with triangles, control liver; solid line with squares, BAPN lung; dashed line with squares, BAPN liver. BAPN was started at week 2. Antibody doses: unlabelled, 20 mg kg^−1; asterisk, 4 mg kg^−1; two asterisks, 1 mg kg^−1. Control, n=10; LOX shRNA, n=10; 4 wk BAPN, n=10; 3 wk BAPN, n=3; 2 wk BAPN, n=3; LOX antibody, n=5. Treatment details are given in Methods.
MDA-MB 231 cells were grown as subcutaneous orthotopic tumors in 6-week-old female Nude (nu/nu) mice following intradermal injection of 1×10^7 cells in 0.1 ml of PBS into the mammary fat pad. Mice were sacrificed and tumors excised six weeks after inoculation. […] Lung and liver metastases were defined as gross lesions of at least 25 cells.

[2] = tested on: fibronectin null mouse embryonic fibroblasts; experiment: In vitro invasion of fibronectin null cells; format: cell-based
Experimental: FIG. 8 is a graph (A) showing fibronectin null mouse embryonic fibroblasts subjected to in vitro invasion assays; untreated invasion was compared with that of cells transfected with LOX antisense oligos (Antisense) or incubated with BAPN, and (B) Adhesion of SiHa cells expressing DSRED to matrix was assessed over time.
A role for fibronectin (FN) was sought, because it was strongly associated with LOX expression in the breast cancer microarray data set that was analyzed (data not shown), is reported to regulate invasion, bind to integrins and interact with LOX, and is hypoxia induced. […] FAK phosphorylation could be induced in the cells expressing LOX shRNA by transfection with mature LOX (but not catalytically dead LOX), confirming a role for LOX in FAK phosphorylation. […] It is proposed here that this is because LOX increases fibrillar collagen, which is a ligand for b1 integrin. Other integrin pathways have been reported to mediate hypoxia-induced invasion.

FAK = FAK phosphorylation (phospho-FAK immunoblot); format: cell-based; conditions: cells expressing LOX shRNA transfected with mature LOX
Text: Acquisition of motility is required before cells can migrate and invade. Invasive cell migration is a multi-step process^17 that commences with pseudopod protrusion at the leading edge driven by actin polymerization, resulting in focal adhesion formation and the activation of integrin and focal adhesion kinase (FAK). […] LOX protein expression extended along hairlike fibers protruding from the cell surface into the collagen matrix. […] Remodeling of the actin cytoskeleton with increased formation of stress fibers and focal adhesion in MDA231 control cells particularly in hypoxia was observed, which were not seen in cells expressing LOX shRNA.
A role for fibronectin (FN) was sought, because it was strongly associated with LOX expression in the breast cancer microarray data set that was analyzed (data not shown), is reported to regulate invasion, bind to integrins and interact with LOX, and is hypoxia induced. […] FAK phosphorylation could be induced in the cells expressing LOX shRNA by transfection with mature LOX (but not catalytically dead LOX), confirming a role for LOX in FAK phosphorylation. […]
Methods were performed as previously described. […] LOX was analyzed by using a rabbit polyclonal antibody raised against a synthetic peptide of human LOX (EDTSCDYGYHRRFA (SEQ ID NO:1); Open Biosystems). […] Quantification was performed with ImageQuant software.

RAW macrophages = experiment: In vitro invasion of RAW macrophages towards conditioned media; format: cell-based; conditions: BAPN at 200 μM
Experimental: To determine if LOX levels affected the migration or invasion of BMDCs, we performed in vitro invasion assays using CM as a chemo-attractant (FIG. 21B). The migration of BMDCs was increased by FN, regardless of LOX.
In vitro migration and invasion of RAW macrophage cells towards CM (as chemo-attractant) was measured in a transwell assay as described above. Fibronectin (cFN, Sigma) was used at 25 μg/ml and BAPN at 200 μM. Matrigel plugs were formed by mixing 60% Matrigel with 40% CM prior to subcutaneous injection of 500 μl of the mixture. Plugs were removed 7 days later, fixed in OCT, sectioned and stained for B-cells (B220). Cells in 10 fields of view were counted at least 50 μm away from the edge of the plug.

[3] = BAPN 100 mg kg-1 daily i.p. or antibody 20 mg kg-1 twice weekly, control MDA231 tumors

N#CCCN [BAPN, β-aminoproprionitrile]
lung tumors [1]: very few tumors
metastases [1]: no metastases
effect on metastatic tumors already formed (MDA-MB 231 cells; 4 wk BAPN, treatment started at week 4): eliminated tumors that had formed
liver metastases (MDA-MB 231 cells; [3]): did not have any lung metastases or liver metastases
lung metastases (MDA-MB 231 cells; [3]): did not have any lung metastases
metastatic lesions formed in orthotopic studies (MDA-MB 231 cells; BAPN treated mice): completely absent
deleterious side effects (MDA-MB 231 cells; antibody up to 20 mg kg-1 twice weekly, BAPN 100 mg kg-1 daily i.p. for four, three or two weeks): no deleterious side effects
primary tumor growth (MDA-MB 231 cells; inhibition of LOX with shRNA, BAPN or antibody): slight effect on primary tumor growth
invasion of primary tumors (MDA-MB 231 cells; primary tumors from treated mice or tumors expressing LOX shRNA): showed evidence of invasion
liver metastases (MDA-MB 231 cells; reduced antibody doses (4, 1 mg kg-1) or reduced periods of BAPN treatment): no liver metastases
lung metastases (MDA-MB 231 cells; reduced antibody doses (4, 1 mg kg-1) or reduced periods of BAPN treatment, even when metastases had already formed): significantly fewer lung metastases
invasion of FN-null cells [2]: strongly inhibited invasion (similarly to BAPN addition)
FAK phosphorylation induced by transfection with mature LOX (FAK): could be prevented
increased BMDC invasion with hypoxic Wt CM (RAW macrophages): could be prevented
